Target: T1, AR (Homo sapiens, UniProt P10275)
T1 sequence (P10275 669-920 limits assumed): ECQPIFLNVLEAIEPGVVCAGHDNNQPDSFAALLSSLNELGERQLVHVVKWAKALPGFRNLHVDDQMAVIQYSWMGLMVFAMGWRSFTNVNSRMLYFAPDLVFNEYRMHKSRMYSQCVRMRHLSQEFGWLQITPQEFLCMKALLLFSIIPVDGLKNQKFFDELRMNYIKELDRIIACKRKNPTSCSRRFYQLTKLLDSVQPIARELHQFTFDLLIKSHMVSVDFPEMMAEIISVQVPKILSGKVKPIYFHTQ
Assay: GeneBlazer assay, inhibition against AR activity
Format: cell-based
Conditions: 10 uM; Table II
Excerpt: Tables II, III and IV show % inhibition against AR activity at 10 μm within a GeneBlazer assay, and IC50 values (nM) in GeneBlazer assay.

Row | SMILES | inhibition at 10 µM [%]
1 | CC(C)(C)n1nnnc1C(/C=C/c1ccccc1)N1CCN(c2c(Cl)cncc2Cl)CC1 (centres unmarked) [Compound 43, (E)-1-(1-(1-(tert-butyl)-1H-tetrazol-5-yl)-3-phenylallyl)-4-(3,5-dichloropyridin-4-yl)piperazine] | 111
2 | CCCCn1nnnc1C(c1cc2ccccc2[nH]1)N1CCN(c2c(Cl)cncc2Cl)CC1 (centres unmarked) [Compound 46, 2-((1-butyl-1H-tetrazol-5-yl)(4-(3,5-dichloropyridin-4-yl)piperazin-1-yl)methyl)-1H-indole] | 102
3 | CC(C)(C)n1nnnc1C(c1cc2ccccc2[nH]1)N1CCN(c2c(Cl)cncc2Cl)CC1 (centres unmarked) [Compound 47, 2-((1-(tert-butyl)-1H-tetrazol-5-yl)(4-(3,5-dichloropyridin-4-yl)piperazin-1-yl)methyl)-1H-indole] | 114
4 | CCCCn1nnnc1C(c1ccc(C)o1)N1CCN(c2c(Cl)cncc2Cl)CC1 (centres unmarked) [Compound 48, 1-((1-butyl-1H-tetrazol-5-yl)(5-methylfuran-2-yl)methyl)-4-(3,5-dichloropyridin-4-yl)piperazine] | 100
5 | Cc1ccc(C(c2nnnn2C(C)(C)C)N2CCN(c3c(Cl)cncc3Cl)CC2)o1 (centres unmarked) [Compound 49, 1-((1-(tert-butyl)-1H-tetrazol-5-yl)(5-methylfuran-2-yl)methyl)-4-(3,5-dichloropyridin-4-yl)piperazine] | 100
6 | CC(C)n1nnnc1C(c1ccco1)N1CCN(c2c(Cl)cncc2Cl)CC1 (centres unmarked) [Compound 50, 1-(3,5-dichloropyridin-4-yl)-4-(furan-2-yl(1-isopropyl-1H-tetrazol-5-yl)methyl)piperazine] | 96.7
7 | CC(C)n1nnnc1C(c1ccnc2ccccc12)N1CCN(c2c(Cl)cncc2Cl)CC1 (centres unmarked) [Compound 51, 4-((4-(3,5-dichloropyridin-4-yl)piperazin-1-yl)(1-isopropyl-1H-tetrazol-5-yl)methyl)quinoline] | 101
8 | CCCCC(c1nnnn1C(C)C)N1CCN(c2c(Cl)cncc2Cl)CC1 (centres unmarked) [Compound 52, 1-(3,5-dichloropyridin-4-yl)-4-(1-(1-isopropyl-1H-tetrazol-5-yl)pentyl)piperazine] | 95.8
9 | COC(=O)Cn1nnnc1C(c1cccc(O)c1)N1CCN(c2c(Cl)cncc2Cl)CC1 (centres unmarked) [Compound 53, Methyl 2-(5-((4-(3,5-dichloropyridin-4-yl)piperazin-1-yl)(3-hydroxyphenyl)methyl)-1H-tetrazol-1-yl)acetate] | 72.4
10 | CCCCn1nnnc1C(c1cccc(O)c1)N1CCN(c2ccc(F)cc2)CC1 (centres unmarked) [Compound 54, 3-((1-butyl-1H-tetrazol-5-yl)(4-(4-fluorophenyl)piperazin-1-yl)methyl)phenol] | 51.3
11 | CCCCn1nnnc1C(c1cccc(O)c1)N1CCN(c2c(C)cccc2C)CC1 (centres unmarked) [Compound 55, 3-((1-butyl-1H-tetrazol-5-yl)(4-(2,6-dimethylphenyl)piperazin-1-yl)methyl)phenol] | 109
12 | CCCCn1nnnc1C(c1cccc(O)c1)N1CCN(C(=O)OC(C)(C)C)CC1 (centres unmarked) [Compound 56, tert-butyl 4-((1-butyl-1H-tetrazol-5-yl)(3-hydroxyphenyl)methyl)piperazine-1-carboxylate] | 24.6
13 | CCCCn1nnnc1C(c1cccc(O)c1)N1CCN(C(=O)OCc2ccccc2)CC1 (centres unmarked) [Compound 57, benzyl 4-((1-butyl-1H-tetrazol-5-yl)(3-hydroxyphenyl)methyl)piperazine-1-carboxylate] | 24.9
14 | CCCCn1nnnc1C(c1cccc(O)c1)N1CCN(c2cccc(C(F)(F)F)n2)CC1 (centres unmarked) [Compound 58, 3-((1-butyl-1H-tetrazol-5-yl)(4-(6-(trifluoromethyl)pyridin-2-yl)piperazin-1-yl)methyl)phenol] | 58.4
15 | CCCCn1nnnc1C(c1cccc(O)c1)N1CCN(c2ccccc2OC)CC1 (centres unmarked) [Compound 59, 3-((1-butyl-1H-tetrazol-5-yl)(4-(2-methoxyphenyl)piperazin-1-yl)methyl)phenol] | 94.5

Second part, the compound after the results:

Row | inhibition at 10 µM [%] | SMILES
16 | 105 | CCCCn1nnnc1C(c1cccc(O)c1)N1CCN(c2ncccc2C(F)(F)F)CC1 (centres unmarked) [Compound 60, 3-((1-butyl-1H-tetrazol-5-yl)(4-(3-(trifluoromethyl)pyridin-2-yl)piperazin-1-yl)methyl)phenol]
17 | 102 | CCCCn1nnnc1C(c1cccc(O)c1)N1CCN(c2ncc(C(F)(F)F)cc2Cl)CC1 (centres unmarked) [Compound 61, 3-((1-butyl-1H-tetrazol-5-yl)(4-(3-chloro-5-(trifluoromethyl)pyridin-2-yl)piperazin-1-yl)methyl)phenol]
18 | 19.9 | CCCCn1nnnc1C(c1cccc(O)c1)N1CCN(c2ccccn2)CC1 (centres unmarked) [Compound 62, 3-((1-butyl-1H-tetrazol-5-yl)(4-(pyridin-2-yl)piperazin-1-yl)methyl)phenol]
19 | 47.9 | CCCCn1nnnc1C(c1cccc(O)c1)N1CCN(c2ccc(C(C)=O)cc2)CC1 (centres unmarked) [Compound 63, 1-(4-(4-((1-butyl-1H-tetrazol-5-yl)(3-hydroxyphenyl)methyl)piperazin-1-yl)phenyl)ethanone]
20 | 79.8 | CCCCn1nnnc1C(c1cccc(O)c1)N1CCN(c2ccccc2F)CC1 (centres unmarked) [Compound 65, 3-((1-butyl-1H-tetrazol-5-yl)(4-(2-fluorophenyl)piperazin-1-yl)methyl)phenol]
21 | 106 | CCCCn1nnnc1C(c1cccc(O)c1)N1CCN(c2cccc(C)c2C)CC1 (centres unmarked) [Compound 66, 3-((1-butyl-1H-tetrazol-5-yl)(4-(2,3-dimethylphenyl)piperazin-1-yl)methyl)phenol]
22 | 63.9 | CCCCn1nnnc1C(c1cccc(O)c1)N1CCN(c2ccccc2)CC1 (centres unmarked) [Compound 67, 3-((1-butyl-1H-tetrazol-5-yl)(4-phenylpiperazin-1-yl)methyl)phenol]
23 | 17.2 | CC(C)(C)n1nnnc1C(c1cccc(O)c1)N1CCN(C/C=C/c2ccccc2)CC1 (centres unmarked) [Compound 68, (E)-3-((1-(tert-butyl)-1H-tetrazol-5-yl)(4-cinnamylpiperazin-1-yl)methyl)phenol]
24 | 96 | CCCCn1nnnc1C(CCc1ccccc1)N1CCN(c2c(Cl)cncc2Cl)CC1 (centres unmarked) [Compound 69, 1-(1-(1-butyl-1H-tetrazol-5-yl)-3-phenylpropyl)-4-(3,5-dichloropyridin-4-yl)piperazine]
25 | 109 | CC(C)(C)n1nnnc1C(CCc1ccccc1)N1CCN(c2c(Cl)cncc2Cl)CC1 (centres unmarked) [Compound 70, 1-(1-(1-(tert-butyl)-1H-tetrazol-5-yl)-3-phenylpropyl)-4-(3,5-dichloropyridin-4-yl)piperazine]
26 | 11.9 | CCCCn1nnnc1C(c1cccc(O)c1)N1CCN(C/C=C/c2ccccc2)CC1 (centres unmarked) [Compound 71, (E)-3-((1-butyl-1H-tetrazol-5-yl)(4-cinnamylpiperazin-1-yl)methyl)phenol]
27 | 112 | CCCCn1nnnc1C(c1cccc(O)c1)N1CCN(c2cc(C)ccc2C)CC1 (centres unmarked) [Compound 72, 3-((1-butyl-1H-tetrazol-5-yl)(4-(2,5-dimethylphenyl)piperazin-1-yl)methyl)phenol]

Same assay, conditions: Table II

Row | SMILES | IC50 [nM]
28 | CCCCn1nnnc1C(c1cc2ccccc2[nH]1)N1CCN(c2c(Cl)cncc2Cl)CC1 (centres unmarked) [Compound 46, 2-((1-butyl-1H-tetrazol-5-yl)(4-(3,5-dichloropyridin-4-yl)piperazin-1-yl)methyl)-1H-indole] | 381
29 | CC(C)(C)n1nnnc1C(c1cc2ccccc2[nH]1)N1CCN(c2c(Cl)cncc2Cl)CC1 (centres unmarked) [Compound 47, 2-((1-(tert-butyl)-1H-tetrazol-5-yl)(4-(3,5-dichloropyridin-4-yl)piperazin-1-yl)methyl)-1H-indole] | 182

Results, then the compound that gave them:

Row | IC50 [nM] | SMILES
30 | 2270 | CCCCn1nnnc1C(c1cccc(O)c1)N1CCN(c2ncc(C(F)(F)F)cc2Cl)CC1 (centres unmarked) [Compound 61, 3-((1-butyl-1H-tetrazol-5-yl)(4-(3-chloro-5-(trifluoromethyl)pyridin-2-yl)piperazin-1-yl)methyl)phenol]
31 | 1280 | CC(C)(C)n1nnnc1C(CCc1ccccc1)N1CCN(c2c(Cl)cncc2Cl)CC1 (centres unmarked) [Compound 70, 1-(1-(1-(tert-butyl)-1H-tetrazol-5-yl)-3-phenylpropyl)-4-(3,5-dichloropyridin-4-yl)piperazine]
32 | 790 | CCCCn1nnnc1C(c1cccc(O)c1)N1CCN(c2cc(C)ccc2C)CC1 (centres unmarked) [Compound 72, 3-((1-butyl-1H-tetrazol-5-yl)(4-(2,5-dimethylphenyl)piperazin-1-yl)methyl)phenol]

Source: US20220062278A1, “SMALL MOLECULE INHIBITORS OF THE ANDROGEN RECEPTOR ACTIVITY AND/OR EXPRESSION AND USES THEREOF” (Arizona Board of Regents on Behalf of the Univeristy of …, priority 2018, published 2022)
